The nature of series [1]: Drug release studies, polymer-drug-clay extrudate (Example 3). The format is physicochemical. An excerpt:
PEGIB is PEG+ibuprofen, PEGIBM is PEG+ibuprofen+montmorillonite (natural clay) and PEGIBS is PEG+ibuprofen+synthetic clay. In one embodiment the extrudate is rod shaped with a diameter of 1 mm.
In one embodiment the extrudate is rod shaped with a diameter of 1 mm.

Series [2] can be described thus: Drug release studies, polymer-drug-clay disks (Example 3). In kind it is physicochemical. From the text: In a one embodiment the discs were 18 mm in diameter and 1 mm thick. Different sizes or shapes of discs will influence the release rate of the drug.

In the case of `CC(C)Cc1ccc(C(C)C(=O)O)cc1` (stereo not drawn) [Ibuprofen Powder, ibuprofen], in series [1] (PEG-Ibuprofen-Clay Extrudate), the “Time 50% release” value is less than 5 min, the “Time 80% release” value was less than 5 min and the “Time 100% release” value worked out at 10 min. In series [2] (PEG-Ibuprofen-Clay Disks), the “Time 50% release” value was less than 5 min, the “Time 80% release” value was less than 5 min and the “Time 100% release” value came to 10 min.

With `CC(=O)Nc1ccc(O)cc1` [Paracetamol powder, paracetamol], the “Time 50% release” value in series [1] (PCL-Paracetamol-Clay Extrudate), in series [1] (PEG-Paracetamol-Clay Extrudate), in series [2] (PCL-Paracetamol-Clay Disks) and in series [2] (PEG-Paracetamol-Clay Disks) was less than 5 min in each case. Further, the “Time 80% release” value in series [1] (PCL-Paracetamol-Clay Extrudate), in series [1] (PEG-Paracetamol-Clay Extrudate), in series [2] (PCL-Paracetamol-Clay Disks) and in series [2] (PEG-Paracetamol-Clay Disks) was less than 5 min in each case. For the same compound, the “Time 100% release” value in series [1] (PCL-Paracetamol-Clay Extrudate), in series [1] (PEG-Paracetamol-Clay Extrudate), in series [2] (PCL-Paracetamol-Clay Disks) and in series [2] (PEG-Paracetamol-Clay Disks) was less than 5 min throughout.

(Values after US20060147538A1, “Nanocomposite drug delivery composition” (THE QUEEN'S UNIVERSITY OF BELFAST, priority 2003, published 2006).)
